Results as given in PMC6021034, “Novel FFA1 (GPR40) agonists containing spirocyclic periphery: polar azine periphery as a driver of potency” (Journal of Enzyme Inhibition and Medicinal Chemistry, 2016).
Like-named read-outs stand apart in the source and are kept apart here.

What was measured:
human GPR40 = human GPR40 (Homo sapiens, UniProt O14842); assay: Calcium flux (FLIPR, Fluo-8) agonist assay in CHO cells stably expressing human GPR40; type: cell-based; details: for % FFA1 activation at 5 μM: relative to GPR40 activation by 20 μM of GW9509, n = 2
Chain of human GPR40 (O14842 whole entry): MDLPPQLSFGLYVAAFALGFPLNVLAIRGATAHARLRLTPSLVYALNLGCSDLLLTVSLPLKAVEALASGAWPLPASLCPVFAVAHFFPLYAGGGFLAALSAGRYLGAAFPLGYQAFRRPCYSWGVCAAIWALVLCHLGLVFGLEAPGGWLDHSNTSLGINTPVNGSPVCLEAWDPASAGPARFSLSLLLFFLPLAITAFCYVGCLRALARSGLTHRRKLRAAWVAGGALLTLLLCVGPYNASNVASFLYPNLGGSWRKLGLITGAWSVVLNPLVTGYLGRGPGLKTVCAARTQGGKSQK
Description: Determination of agonistic activity of compounds against FFA1 (GPR40) receptor
CHO cells stably expressing human GPR40 (stable CHO-GPR40 line created at Enamine Ltd., Kyiv, Ukraine) were seeded (12 500 cells/well) into 384-well black-wall, clear-bottom microtiter plates 24 h prior to assay. Cells were loaded for 1 h with fluorescent calcium dye (Fluo-8 Calcium Assay kit, Abcam, ab112129, Cambridge, UK) and tested using fluorometric imaging plate reader (FLIPR Tetra® High Throughput Cellular Screening System, Molecular Devices Corp., Sunnyvale, CA). Maximum change in fluorescence over base line was used to determine agonist response. A potent and selective agonist for FFA1 (GPR40) GW9508 (Selleckchem, S8014) was tested with the test compounds as a positive control. Concentration response curve data were fitted using Molecular Devices ScreenWorks® System Control Software (Molecular Devices). The half-maximal effective concentration was determined from these curves plotted in “% FFA1 activation − log[drug]” coordinates and % maximum efficacy was related to that of the reference compounds GW9508.

FFA1 [1] = details: cited from earlier work
FFA1 [2] = system: FFA1; set-up: method as in PMID 24900210; details: cited from earlier work
[3] = dose-response (% FFA1 activation) mode, read-out: EC50

Molecule | % FFA1 activation at 5 μM (human GPR40) [%] | EC50 (human GPR40; [3]) [µM] | also measured
3-{4-[(4-{[4-(Pyrazin-2-yloxy)-1-oxa-9-azaspiro[5.5]undec-9-yl]methyl}benzyl)oxy]phenyl}propanoic acid dihydrochloride [Compound 4a] | 32.5 | – | –
Cl.Cl.O=C(O)CCc1ccc(OCc2ccc(CN3CCC4(CC3)CC(Oc3ncccn3)CCO4)cc2)cc1 (stereo not shown) [Compound 4b, 3-{4-[(4-{[4-(Pyrimidin-2-yloxy)-1-oxa-9-azaspiro[5.5]undec-9-yl]methyl}benzyl)oxy]phenyl} propanoic aciddihydrochloride] | 80.0 | 1.62 | % Efficacy (human GPR40; maximum efficacy relative to GPR40 activation by 20 μM of GW9509, n = 2): 80%
Cl.Cl.O=C(O)CCc1ccc(OCc2ccc(CN3CCC4(CC3)CC(Oc3ccccn3)CCO4)cc2)cc1 (stereo not shown) [Compound 4c, 3-{4-[(4-{[4-(Pyridin-2-yloxy)-1-oxa-9-azaspiro[5.5]undec-9-yl]methyl}benzyl)oxy]phenyl}propanoic acid dihydrochloride] | 61.4 | – | Emax (human GPR40; CHO, maximum efficacy relative to GPR40 activation by 20 μM of GW9509, n = 2): 61%; EC50 (human GPR40; Table 2, compounds investigated in this work, read-out: FFA1 EC50): 0.9 µM
Cl.Cl.O=C(O)CCc1ccc(OCc2ccc(CN3CCC4(CC3)CC(Oc3ccncc3)CCO4)cc2)cc1 (stereo not shown) [Compound 4d, 3-{4-[(4-{[4-(Pyridin-4-yloxy)-1-oxa-9-azaspiro[5.5]undec-9-yl]methyl}benzyl)oxy]phenyl}propanoic acid dihydrochloride] | 13.6 | > 20 | –
Cl.Cl.O=C(O)CCc1ccc(OCc2ccc(CN3CCC4(CC3)CC(N3CCCC3)CCO4)cc2)cc1 (stereo not shown) [Compound 4e, 3-[4-({4-[(4-Pyrrolidin-1-yl-1-oxa-9-azaspiro[5.5]undec-9-yl)methyl]benzyl}oxy)phenyl]propanoic acid dihydrochloride] | 9.1 | > 20 | –
Cl.Cl.O=C(O)CCc1ccc(OCc2ccc(CN3CCC4(CC3)CC(N3CCOCC3)CCO4)cc2)cc1 (stereo not shown) [Compound 4f, 3-[4-({4-[(4-Morpholin-4-yl-1-oxa-9-azaspiro[5.5]undec-9-yl)methyl]benzyl}oxy)phenyl]propanoic acid dihydrochloride] | 10.2 | > 20 | –
CNC(=O)CC1CCOC2(CCN(Cc3ccc(COc4ccc(CCC(=O)O)cc4)cc3)CC2)C1.Cl (stereo not shown) [Compound 4g, 3-(4-{[4-({4-[2-(Methylamino)-2-oxoethyl]-1-oxa-9-azaspiro[5.5]undec-9-yl}methyl)benzyl]oxy}phenyl)propanoic acid hydrochloride] | 9.9 | > 20 | –
Cl.Cl.O=C(O)CCc1ccc(OCc2ccc(CN3CCC4(CC3)CC(CC(=O)NCc3ccncc3)CCO4)cc2)cc1 (stereo not shown) [Compound 4h, 3-[4-({4-[(4-{2-Oxo-2-[(pyridin-4-ylmethyl)amino]ethyl}-1-oxa-9-azaspiro[5.5]undec-9-yl)methyl]benzyl}oxy)phenyl]propanoic acid dihydrochloride] | 10.0 | > 20 | –
Cl.Cl.O=C(O)CCc1ccc(OCc2ccc(CN3CCC4(CC3)CC(CC(=O)NCc3cccnc3)CCO4)cc2)cc1 (stereo not shown) [Compound 4i, 3-[4-({4-[(4-{2-Oxo-2-[(pyridin-3-ylmethyl)amino]ethyl}-1-oxa-9-azaspiro[5.5]undec-9-yl)methyl]benzyl}oxy)phenyl]propanoic acid dihydrochloride] | 11.6 | > 20 | –
O=C(O)CCc1ccc(OCc2ccc(CN3CCC4(CCCCO4)CC3)cc2)cc1 [Compound 7] | – | – | EC50 (FFA1 [1]; reported earlier): > 20 µM; FFA1 agonist activity (in words) (FFA1 [1]; tested earlier): inactive
Cc1cc(OCCCS(C)(=O)=O)cc(C)c1-c1cccc(COc2ccc3c(c2)OC[C@H]3CC(=O)O)c1 [TAK-875, fasiglifam] | – | – | EC50 (FFA1 [2]): 0.014 µM
